Test results from ChEMBL document CHEMBL1201862, “PubChem BioAssay data set” (2004).
One block for each molecule: values may come before it. Calls of active or inactive are those of the source.

Legend:
Format in all cases: functional
[1] = molecular target: Serine/threonine-protein kinase TAO1 (Homo sapiens, UniProt Q7L7X3)
[2] = molecular target: Cyclin-dependent kinase 19 (Homo sapiens, UniProt Q9BWU1); test: Navigating the Kinome. Panel member name: CDC2L6
[3] = molecular target: STE20-like serine/threonine-protein kinase (Homo sapiens, UniProt Q9H2G2)
[4] = molecular target: Lymphokine-activated killer T-cell-originated protein kinase (Homo sapiens, UniProt Q96KB5);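 also: value comes from a kinase panel screen in which TOPK was one of the panel members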
[5] = molecular target: Mitogen-activated protein kinase kinase kinase kinase 4 (Homo sapiens, UniProt O95819)
[6] = molecular target: Phosphorylase b kinase gamma catalytic chain, liver/testis isoform (Homo sapiens, UniProt P15735);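 also: PHKG2 measured as one member of a kinome-wide kinase panel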
[7] = molecular target: Serine/threonine-protein kinase D3 (Homo sapiens, UniProt O94806);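 also: determined within a kinase panel screen, with PRKCN as the panel member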
[8] = molecular target: T1, Interleukin-1 receptor-associated kinase 4 (Homo sapiens, UniProt Q9NWZ3)
T1 sequence (Q9NWZ3 whole entry): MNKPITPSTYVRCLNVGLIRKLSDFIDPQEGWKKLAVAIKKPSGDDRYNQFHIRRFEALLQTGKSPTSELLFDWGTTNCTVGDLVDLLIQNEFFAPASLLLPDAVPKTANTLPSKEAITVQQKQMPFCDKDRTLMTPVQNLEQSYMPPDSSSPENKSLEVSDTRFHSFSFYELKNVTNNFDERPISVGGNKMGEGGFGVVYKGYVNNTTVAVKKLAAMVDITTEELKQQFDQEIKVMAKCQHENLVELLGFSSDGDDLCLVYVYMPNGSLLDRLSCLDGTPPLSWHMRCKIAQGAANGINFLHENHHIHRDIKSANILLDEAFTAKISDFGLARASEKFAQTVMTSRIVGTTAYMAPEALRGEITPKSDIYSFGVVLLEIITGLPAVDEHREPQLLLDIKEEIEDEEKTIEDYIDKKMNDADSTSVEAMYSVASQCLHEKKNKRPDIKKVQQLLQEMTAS

[9] = molecular target: Serine/threonine-protein kinase pim-2 (Homo sapiens, UniProt Q9P1W9);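 also: value comes from a broad kinase panel profiling study in which PIM2 was one of the panel members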
[10] = molecular target: Serine/threonine-protein kinase DCLK1 (Homo sapiens, UniProt O15075);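 also: affinity for DCLK1 (listed as DCAMKL1) measured as one member of a kinome-wide kinase profiling panel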
[11] = molecular target: ALK tyrosine kinase receptor (Homo sapiens, UniProt Q9UM73);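 also: ALK tested as one member of a kinase panel screen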
[12] = molecular target: Proto-oncogene tyrosine-protein kinase receptor Ret (Homo sapiens, UniProt P07949);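 also: measured within a kinome-wide profiling panel, RET as the panel member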
[13] = molecular target: Tyrosine-protein kinase receptor TYRO3 (Homo sapiens, UniProt Q06418);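 also: TYRO3 value obtained as one member of a kinome-wide profiling panel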
[14] = molecular target: Hepatocyte growth factor receptor (Homo sapiens, UniProt P08581);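 also: kinase panel profiling across the kinome, with MET as the panel member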
[15] = molecular target: Dual specificity tyrosine-phosphorylation-regulated kinase 1B (Homo sapiens, UniProt Q9Y463); test: Navigating the Kinome. Panel member name: DYRK1B
[16] = molecular target: Leucine-rich repeat serine/threonine-protein kinase 2 (Homo sapiens, UniProt Q5S007);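 also: value from a broad kinome-wide panel profiling study in which LRRK2 was one of the kinases tested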
[17] = molecular target: Cyclin-dependent kinase 8 (Homo sapiens, UniProt P49336); test: Navigating the Kinome. Panel member name: CDK8
[18] = molecular target: Dual specificity protein kinase CLK4 (Homo sapiens, UniProt Q9HAZ1)
[19] = molecular target: Macrophage-stimulating protein receptor (Homo sapiens, UniProt Q04912); test: Navigating the Kinome. Panel member name: MST1R
[20] = molecular target: Dual specificity tyrosine-phosphorylation-regulated kinase 1A (Homo sapiens, UniProt Q13627);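 also: measured against DYRK1A as one member of a broad kinome profiling panel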
[21] = molecular target: Leukocyte tyrosine kinase receptor (Homo sapiens, UniProt P29376); test: Navigating the Kinome. Panel member name: LTK
[22] = molecular target: Tyrosine-protein kinase JAK2 (Homo sapiens, UniProt O60674);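 also: JAK2 tested as one member of a kinase panel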
[23] = molecular target: Tyrosine-protein kinase SYK (Homo sapiens, UniProt P43405)
[24] = molecular target: Testis-specific serine/threonine-protein kinase 2 (Homo sapiens, UniProt Q96PF2);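 also: part of the Navigating the Kinome panel, target entry STK22B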
[25] = molecular target: Tyrosine-protein kinase Lck (Homo sapiens, UniProt P06239);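 also: lck was assayed as one member of a kinase panel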
[26] = molecular target: MAP kinase-activated protein kinase 5 (Homo sapiens, UniProt Q8IW41);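 also: measured as one member of a kinome panel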
[27] = molecular target: Calcium/calmodulin-dependent protein kinase type II subunit delta (Homo sapiens, UniProt Q13557)
[28] = molecular target: T2, Tyrosine-protein kinase JAK3 (Homo sapiens, UniProt P52333)
T2 sequence (P52333 whole entry): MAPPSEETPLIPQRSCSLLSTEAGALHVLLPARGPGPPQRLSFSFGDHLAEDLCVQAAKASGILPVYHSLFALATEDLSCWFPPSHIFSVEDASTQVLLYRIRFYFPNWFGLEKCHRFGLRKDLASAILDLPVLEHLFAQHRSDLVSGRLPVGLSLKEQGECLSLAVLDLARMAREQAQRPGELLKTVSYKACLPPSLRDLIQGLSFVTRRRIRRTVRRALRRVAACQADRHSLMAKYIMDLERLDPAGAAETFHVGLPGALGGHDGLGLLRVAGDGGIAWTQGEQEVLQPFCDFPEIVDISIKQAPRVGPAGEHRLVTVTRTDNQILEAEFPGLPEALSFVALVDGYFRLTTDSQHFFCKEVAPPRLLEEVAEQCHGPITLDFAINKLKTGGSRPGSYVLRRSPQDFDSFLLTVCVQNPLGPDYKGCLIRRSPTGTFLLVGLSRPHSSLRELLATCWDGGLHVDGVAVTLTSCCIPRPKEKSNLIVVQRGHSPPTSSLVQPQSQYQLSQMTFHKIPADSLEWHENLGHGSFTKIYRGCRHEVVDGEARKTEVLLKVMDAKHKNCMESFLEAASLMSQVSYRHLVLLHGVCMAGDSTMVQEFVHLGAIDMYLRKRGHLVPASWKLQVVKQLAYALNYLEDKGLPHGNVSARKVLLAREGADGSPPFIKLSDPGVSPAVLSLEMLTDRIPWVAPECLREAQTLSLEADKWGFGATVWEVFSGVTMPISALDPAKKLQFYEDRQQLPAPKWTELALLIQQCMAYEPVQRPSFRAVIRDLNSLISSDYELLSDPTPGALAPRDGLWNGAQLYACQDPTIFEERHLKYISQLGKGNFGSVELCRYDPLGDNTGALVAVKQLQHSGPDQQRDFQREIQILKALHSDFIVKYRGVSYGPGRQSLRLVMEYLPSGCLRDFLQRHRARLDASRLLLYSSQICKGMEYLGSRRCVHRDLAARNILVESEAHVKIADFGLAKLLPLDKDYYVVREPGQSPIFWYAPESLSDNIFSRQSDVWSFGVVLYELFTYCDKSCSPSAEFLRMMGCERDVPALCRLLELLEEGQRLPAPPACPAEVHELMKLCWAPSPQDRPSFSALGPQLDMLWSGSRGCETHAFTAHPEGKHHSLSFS

[29] = molecular target: Tyrosine-protein kinase Lyn (Homo sapiens, UniProt P07948);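 also: lyn as one member of a kinase panel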
[30] = molecular target: Mitogen-activated protein kinase 9 (Homo sapiens, UniProt P45984);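 also: value from a kinome panel profiling assay, MAPK9 panel entry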
[31] = molecular target: T3, Tyrosine-protein kinase ITK/TSK (Homo sapiens, UniProt Q08881);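 also: affinity for ITK measured as one member of a broad kinase panel profiling binding across the kinome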
T3 sequence (Q08881 whole entry): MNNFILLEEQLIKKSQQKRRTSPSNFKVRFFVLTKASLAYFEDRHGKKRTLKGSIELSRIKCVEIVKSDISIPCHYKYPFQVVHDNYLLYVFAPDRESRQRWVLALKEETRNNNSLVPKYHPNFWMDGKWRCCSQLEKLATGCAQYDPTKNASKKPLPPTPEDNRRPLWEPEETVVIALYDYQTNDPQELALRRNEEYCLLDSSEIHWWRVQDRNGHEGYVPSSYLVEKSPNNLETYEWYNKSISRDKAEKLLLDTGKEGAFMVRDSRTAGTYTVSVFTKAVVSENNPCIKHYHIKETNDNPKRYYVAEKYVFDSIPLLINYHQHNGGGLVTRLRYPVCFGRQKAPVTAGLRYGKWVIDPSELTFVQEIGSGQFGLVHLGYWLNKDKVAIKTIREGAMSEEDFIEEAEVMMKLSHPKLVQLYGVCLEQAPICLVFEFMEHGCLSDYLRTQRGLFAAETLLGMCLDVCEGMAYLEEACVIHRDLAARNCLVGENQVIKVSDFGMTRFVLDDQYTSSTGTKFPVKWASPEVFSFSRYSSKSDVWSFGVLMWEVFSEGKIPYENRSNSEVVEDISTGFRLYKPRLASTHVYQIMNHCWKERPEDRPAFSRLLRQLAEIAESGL

[32] = molecular target: Testis-specific serine/threonine-protein kinase 1 (Homo sapiens, UniProt Q9BXA7)
[33] = molecular target: Mitogen-activated protein kinase 13 (Homo sapiens, UniProt O15264)
[34] = molecular target: Tyrosine-protein kinase Srms (Homo sapiens, UniProt Q9H3Y6);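 also: SRMS measured as one member of a kinome-wide kinase profiling panel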
[35] = molecular target: Receptor tyrosine-protein kinase erbB-2 (Homo sapiens, UniProt P04626); test: Navigating the Kinome. Panel member name: ERBB2
[36] = molecular target: Mitogen-activated protein kinase 1 (Homo sapiens, UniProt P28482)
[37] = molecular target: Interleukin-1 receptor-associated kinase 1 (Homo sapiens, UniProt P51617);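 also: IRAK1 tested as one member of a kinome panel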
Aurora kinase B = Aurora kinase B (Homo sapiens, UniProt Q96GD4)
[38] = molecular target: Tyrosine-protein kinase Fer (Homo sapiens, UniProt P16591);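 also: FER tested as one member of a kinome panel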

Chain of Dual specificity protein kinase CLK4 (Q9HAZ1 whole entry): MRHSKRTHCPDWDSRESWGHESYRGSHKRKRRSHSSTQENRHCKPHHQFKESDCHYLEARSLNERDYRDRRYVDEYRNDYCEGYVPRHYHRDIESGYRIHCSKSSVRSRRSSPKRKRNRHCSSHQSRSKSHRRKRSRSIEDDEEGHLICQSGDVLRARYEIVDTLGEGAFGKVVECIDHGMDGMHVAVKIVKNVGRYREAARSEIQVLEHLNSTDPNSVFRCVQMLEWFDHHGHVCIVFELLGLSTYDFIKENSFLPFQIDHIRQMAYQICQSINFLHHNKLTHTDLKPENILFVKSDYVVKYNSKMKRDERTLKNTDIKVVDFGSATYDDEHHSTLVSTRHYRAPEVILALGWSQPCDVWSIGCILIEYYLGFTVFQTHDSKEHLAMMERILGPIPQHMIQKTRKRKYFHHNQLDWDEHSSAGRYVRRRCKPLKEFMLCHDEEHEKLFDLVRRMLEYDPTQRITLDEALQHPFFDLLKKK
Chain of Lymphokine-activated killer T-cell-originated protein kinase (Q96KB5 whole entry): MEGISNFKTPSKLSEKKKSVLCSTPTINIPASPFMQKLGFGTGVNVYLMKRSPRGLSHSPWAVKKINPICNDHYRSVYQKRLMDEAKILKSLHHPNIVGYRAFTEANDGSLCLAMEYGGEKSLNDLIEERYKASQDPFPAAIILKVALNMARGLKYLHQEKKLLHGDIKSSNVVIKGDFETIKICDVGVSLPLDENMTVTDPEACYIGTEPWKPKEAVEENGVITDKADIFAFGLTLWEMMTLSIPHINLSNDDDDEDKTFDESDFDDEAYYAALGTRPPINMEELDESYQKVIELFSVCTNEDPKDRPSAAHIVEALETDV
Chain of Serine/threonine-protein kinase pim-2 (Q9P1W9 whole entry): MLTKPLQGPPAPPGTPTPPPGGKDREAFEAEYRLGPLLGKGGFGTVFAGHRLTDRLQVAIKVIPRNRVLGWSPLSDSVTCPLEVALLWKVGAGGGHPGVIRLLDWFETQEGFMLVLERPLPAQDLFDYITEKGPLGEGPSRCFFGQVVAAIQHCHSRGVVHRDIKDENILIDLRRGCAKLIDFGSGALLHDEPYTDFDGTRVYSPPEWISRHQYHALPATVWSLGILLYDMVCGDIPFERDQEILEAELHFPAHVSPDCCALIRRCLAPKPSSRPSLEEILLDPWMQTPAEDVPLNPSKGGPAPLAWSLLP
Chain of Tyrosine-protein kinase Lck (P06239 whole entry): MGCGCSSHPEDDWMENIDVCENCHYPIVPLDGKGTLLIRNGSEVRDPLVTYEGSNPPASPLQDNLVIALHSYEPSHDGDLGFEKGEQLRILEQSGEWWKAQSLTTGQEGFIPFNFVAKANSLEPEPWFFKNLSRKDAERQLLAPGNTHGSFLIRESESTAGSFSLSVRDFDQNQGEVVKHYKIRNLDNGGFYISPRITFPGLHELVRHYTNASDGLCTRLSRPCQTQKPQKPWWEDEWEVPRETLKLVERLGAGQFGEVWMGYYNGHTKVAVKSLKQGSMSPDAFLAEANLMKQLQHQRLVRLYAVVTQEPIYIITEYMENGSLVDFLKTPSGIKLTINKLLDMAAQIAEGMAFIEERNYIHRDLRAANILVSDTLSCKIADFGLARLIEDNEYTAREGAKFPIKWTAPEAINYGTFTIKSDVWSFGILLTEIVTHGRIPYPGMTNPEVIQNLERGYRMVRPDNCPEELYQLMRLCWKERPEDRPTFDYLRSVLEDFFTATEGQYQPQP
Chain of Mitogen-activated protein kinase kinase kinase kinase 4 (O95819 whole entry, canonical isoform): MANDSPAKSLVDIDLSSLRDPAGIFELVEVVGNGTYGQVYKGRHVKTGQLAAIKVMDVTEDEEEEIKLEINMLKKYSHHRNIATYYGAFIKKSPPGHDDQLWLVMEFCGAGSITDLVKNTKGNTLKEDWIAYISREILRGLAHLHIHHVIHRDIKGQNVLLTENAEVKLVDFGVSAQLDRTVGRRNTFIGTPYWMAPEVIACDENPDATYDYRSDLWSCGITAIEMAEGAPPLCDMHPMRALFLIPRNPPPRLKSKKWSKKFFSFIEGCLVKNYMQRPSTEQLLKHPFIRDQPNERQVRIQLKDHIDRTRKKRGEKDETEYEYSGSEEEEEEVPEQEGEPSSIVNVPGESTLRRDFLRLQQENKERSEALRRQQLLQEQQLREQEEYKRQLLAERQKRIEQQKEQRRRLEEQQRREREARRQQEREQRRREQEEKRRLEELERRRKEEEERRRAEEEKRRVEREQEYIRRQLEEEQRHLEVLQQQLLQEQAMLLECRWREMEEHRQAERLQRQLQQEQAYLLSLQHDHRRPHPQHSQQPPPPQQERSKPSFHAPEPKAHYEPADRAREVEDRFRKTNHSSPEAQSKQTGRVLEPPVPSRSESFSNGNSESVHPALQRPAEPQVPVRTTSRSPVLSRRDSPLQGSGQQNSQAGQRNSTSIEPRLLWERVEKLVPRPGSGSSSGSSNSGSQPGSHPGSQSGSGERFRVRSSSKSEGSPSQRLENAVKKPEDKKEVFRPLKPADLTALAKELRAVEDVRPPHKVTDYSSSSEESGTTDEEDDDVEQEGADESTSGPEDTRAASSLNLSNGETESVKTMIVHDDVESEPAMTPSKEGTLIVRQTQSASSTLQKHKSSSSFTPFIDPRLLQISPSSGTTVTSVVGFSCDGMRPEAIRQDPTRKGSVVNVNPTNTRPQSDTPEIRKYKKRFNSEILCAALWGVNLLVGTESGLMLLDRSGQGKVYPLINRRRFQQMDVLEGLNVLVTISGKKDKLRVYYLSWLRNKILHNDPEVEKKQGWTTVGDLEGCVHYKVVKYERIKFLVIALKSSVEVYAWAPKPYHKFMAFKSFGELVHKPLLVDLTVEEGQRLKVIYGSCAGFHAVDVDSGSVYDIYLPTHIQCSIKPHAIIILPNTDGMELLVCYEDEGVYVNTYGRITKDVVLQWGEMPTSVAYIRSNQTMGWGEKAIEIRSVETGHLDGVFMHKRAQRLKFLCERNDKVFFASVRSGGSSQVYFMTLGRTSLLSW
Chain of Proto-oncogene tyrosine-protein kinase receptor Ret (P07949 whole entry): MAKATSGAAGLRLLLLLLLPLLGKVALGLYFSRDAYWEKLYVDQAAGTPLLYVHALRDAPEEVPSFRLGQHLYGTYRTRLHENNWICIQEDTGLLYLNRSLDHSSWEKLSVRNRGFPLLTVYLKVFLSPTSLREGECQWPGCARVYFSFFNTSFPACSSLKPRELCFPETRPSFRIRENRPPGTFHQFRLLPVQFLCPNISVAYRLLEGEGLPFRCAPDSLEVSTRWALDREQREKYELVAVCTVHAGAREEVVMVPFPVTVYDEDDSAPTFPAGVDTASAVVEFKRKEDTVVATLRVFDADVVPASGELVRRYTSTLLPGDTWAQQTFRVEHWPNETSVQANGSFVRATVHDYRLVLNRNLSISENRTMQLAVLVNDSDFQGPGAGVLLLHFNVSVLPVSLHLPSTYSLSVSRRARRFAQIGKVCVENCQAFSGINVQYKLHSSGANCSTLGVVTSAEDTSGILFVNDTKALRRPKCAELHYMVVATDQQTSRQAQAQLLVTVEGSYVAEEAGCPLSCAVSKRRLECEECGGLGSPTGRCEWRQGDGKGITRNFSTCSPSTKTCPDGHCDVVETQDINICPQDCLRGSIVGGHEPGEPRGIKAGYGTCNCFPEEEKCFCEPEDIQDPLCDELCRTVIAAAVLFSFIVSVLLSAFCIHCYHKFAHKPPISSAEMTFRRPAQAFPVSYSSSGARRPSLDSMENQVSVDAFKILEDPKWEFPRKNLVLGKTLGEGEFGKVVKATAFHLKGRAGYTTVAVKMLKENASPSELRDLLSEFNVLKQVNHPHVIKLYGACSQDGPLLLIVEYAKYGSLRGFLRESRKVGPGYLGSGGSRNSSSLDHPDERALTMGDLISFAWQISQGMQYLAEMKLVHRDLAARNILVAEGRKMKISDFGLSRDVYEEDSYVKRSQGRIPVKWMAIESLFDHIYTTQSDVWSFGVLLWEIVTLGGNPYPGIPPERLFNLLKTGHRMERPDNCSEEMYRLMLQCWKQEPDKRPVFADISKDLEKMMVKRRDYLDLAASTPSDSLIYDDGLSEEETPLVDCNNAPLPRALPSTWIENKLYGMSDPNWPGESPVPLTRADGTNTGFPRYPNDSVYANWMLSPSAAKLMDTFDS
Chain of Mitogen-activated protein kinase 1 (P28482 whole entry): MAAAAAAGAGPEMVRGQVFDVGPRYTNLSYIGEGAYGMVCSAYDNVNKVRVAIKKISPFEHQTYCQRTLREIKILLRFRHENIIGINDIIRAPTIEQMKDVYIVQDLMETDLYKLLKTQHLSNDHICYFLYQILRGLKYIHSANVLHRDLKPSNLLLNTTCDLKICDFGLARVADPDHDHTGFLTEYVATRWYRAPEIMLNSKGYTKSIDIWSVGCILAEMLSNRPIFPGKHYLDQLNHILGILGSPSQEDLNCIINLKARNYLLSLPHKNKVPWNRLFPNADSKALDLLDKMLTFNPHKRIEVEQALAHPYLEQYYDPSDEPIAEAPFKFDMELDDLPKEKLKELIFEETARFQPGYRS
Chain of MAP kinase-activated protein kinase 5 (Q8IW41 whole entry): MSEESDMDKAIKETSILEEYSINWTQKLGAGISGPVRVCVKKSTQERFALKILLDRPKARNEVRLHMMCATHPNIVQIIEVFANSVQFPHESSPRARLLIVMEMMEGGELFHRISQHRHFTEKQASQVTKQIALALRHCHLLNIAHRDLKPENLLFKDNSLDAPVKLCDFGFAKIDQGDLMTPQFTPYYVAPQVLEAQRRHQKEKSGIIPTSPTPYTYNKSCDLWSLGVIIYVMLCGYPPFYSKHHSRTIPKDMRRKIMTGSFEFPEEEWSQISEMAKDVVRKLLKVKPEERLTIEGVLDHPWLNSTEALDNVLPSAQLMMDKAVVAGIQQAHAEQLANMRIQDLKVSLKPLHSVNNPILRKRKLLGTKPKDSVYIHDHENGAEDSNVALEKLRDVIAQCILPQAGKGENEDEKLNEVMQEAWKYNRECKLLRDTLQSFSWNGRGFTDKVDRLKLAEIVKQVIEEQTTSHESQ

Ki [1]: 3160 nM (active)
Ki [2]: > 100000 nM (inactive)
Ki [3]: 10000 nM (active)
Ki [5]: 1580 nM (active)
SMILES: O=c1[nH]c2ccccc2n2cc(-c3ccc(Cl)cc3)cc12
Ki [4]: 3160 nM (active)

Ki [6]: 5010 nM (active)
Ki [7]: 6310 nM (active)
Ki [8]: 10000 nM (active)
Ki [9]: 1260 nM (active)
Ki [10]: 10000 nM (active)
SMILES: CN(c1ccc2[nH]ncc2c1)c1c(NCc2ccc(Cl)cc2Cl)c(=O)c1=O
Ki [4]: 10000 nM (active)

Ki [11]: 100000 nM (active)
Ki [12]: 50100 nM (active)
Ki [13]: 63100 nM (active)
Ki [14]: 79400 nM (active)
Ki [15]: 39800 nM (active)
Ki [16]: 39800 nM (active)
Ki [17]: 63100 nM (active)
Ki [18]: 10000 nM (active)
Ki [19]: 63100 nM (active)
Ki [20]: 39800 nM (active)
Ki [21]: 39800 nM (active)
SMILES: O=c1[nH]nc2c(-c3ccccc3)cccn12

SMILES: COc1ccc2c(c1)C(=Cc1cnc[nH]1)C(=O)N2
Ki [22]: 501 nM (active)
Ki [23]: > 1580 nM (inactive)
Ki [24]: > 1580 nM (inactive)
Ki [25]: 1580 nM (active)
Ki [26]: > 1580 nM (inactive)
Ki [27]: 1580 nM (active)
Ki [28]: 501 nM (active)
Ki [29]: > 1580 nM (inactive)
Ki [30]: 1580 nM (active)
Ki [31]: > 1580 nM (inactive)
Ki [32]: > 1580 nM (inactive)
Ki [33]: > 7940 nM (inactive)
Ki [34]: > 1580 nM (inactive)
Ki [35]: > 1580 nM (inactive)
Ki [36]: 501 nM (active)
Ki [37]: 1580 nM (active)
Ki (Aurora kinase B): 251 nM (active)
Ki [38]: > 1580 nM (inactive)
Ki [9]: > 1580 nM (inactive)
Ki [18]: 251 nM (active)
